Assays:
Assay in all cases: combination Emax (second highest fraction inhibited in the dose matrix, 72 h); higher = more inhibition; extreme values may be limits of the assay
[1] = tested on: COLO-678 (Colorectal Carcinoma)
Procedure, shortened: (§1)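 Cell lines in DMEM/F12 or RPMI with 10% FBS were plated in 1536-well plates, held 24 hours at 37°C, 5% CO2, then given two-drug dose matrices for 72 hours (DMSO typically 0.2%). Viability was read by CellTiter-Glo 2.0 luminescence and scaled as inhibition from 0 (vehicle wells) to 1 (blank wells). Combination Emax is the second-highest inhibition in the matrix; Bliss excess is observed combination effect minus expected EA + EB − EA·EB, EA and EB being single-agent effects.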

[2] = tested on: SR (Other Blood Carcinomas)
Procedure, shortened: as §1

WM-115 (Melanoma) = tested on: WM-115 (Melanoma)
Procedure, shortened: as §1

[3] = tested on: KYSE-180 (Esophageal Squamous Cell Carcinoma)
Procedure, shortened: as §1

[4] = tested on: BL-41 (Burkitt's Lymphoma)
Procedure, shortened: as §1

[5] = tested on: NCI-H847 (Small Cell Lung Carcinoma)
Procedure, shortened: as §1

[6] = tested on: DND-41 (T-Lymphoblastic Leukemia)
Procedure, shortened: as §1

WIL2-NS (Non-Cancerous) = tested on: WIL2-NS (Non-Cancerous)
Procedure, shortened: as §1

[7] = tested on: KM12 (Colorectal Carcinoma)
Procedure, shortened: as §1

[8] = tested on: L-540 (Hodgkin's Lymphoma)
Procedure, shortened: as §1

ES1 (Ewing's Sarcoma) = tested on: ES1 (Ewing's Sarcoma)
Procedure, shortened: as §1

[9] = tested on: EVSA-T (Breast Carcinoma)
Procedure, shortened: as §1

[10] = tested on: DiFi (Colorectal Carcinoma)
Procedure, shortened: as §1

[11] = tested on: MS751 (Cervical Carcinoma)
Procedure, shortened: as §1

[12] = tested on: KARPAS-45 (T-Lymphoblastic Leukemia)
Procedure, shortened: as §1

MEL-JUSO (Melanoma) = tested on: MEL-JUSO (Melanoma)
Procedure, shortened: as §1

TC-71 (Ewing's Sarcoma) = tested on: TC-71 (Ewing's Sarcoma)
Procedure, shortened: as §1

[13] = tested on: TE-6 (Esophageal Squamous Cell Carcinoma)
Procedure, shortened: as §1

[14] = tested on: SU-DHL-8 (B-Cell Non-Hodgkin's Lymphoma)
Procedure, shortened: as §1

LN-18 (Glioblastoma) = tested on: LN-18 (Glioblastoma)
Procedure, shortened: as §1

Structure (SMILES)	combination Emax [1]	combination Emax [2]	combination Emax (WM-115 (Melanoma))	combination Emax [3]	combination Emax [4]	combination Emax [5]	combination Emax [6]	combination Emax (WIL2-NS (Non-Cancerous))	combination Emax [7]	combination Emax [8]	combination Emax (ES1 (Ewing's Sarcoma))	combination Emax [9]	combination Emax [10]	combination Emax [11]	combination Emax [12]	combination Emax (MEL-JUSO (Melanoma))	combination Emax (TC-71 (Ewing's Sarcoma))	combination Emax [13]	combination Emax [14]	combination Emax (LN-18 (Glioblastoma))
CCc1c2c(nc3ccc(O)cc13)-c1cc3c(c(=O)n1C2)COC(=O)[C@]3(O)CC [SN-38] + O=C(c1cc(Cc2n[nH]c(=O)c3ccccc23)ccc1F)N1CCN(C(=O)C2CC2)CC1 [Olaparib] (first compound max 0.3 µM, 7x7, partner max 10 µM)	0.396	0.982	0.391	0.527	1	1	0.947	1	0.681	0.965	1	0.784	0.701	0.899	–	–	–	–	–	–
NC1(C(=O)N[C@@H](CCO)c2ccc(Cl)cc2)CCN(c2ncnc3[nH]ccc23)CC1 [Capivasertib] + Cn1cnc2c(F)c(Nc3ccc(Br)cc3Cl)c(C(=O)NOCCO)cc21 [Selumetinib] (first compound max 10 µM, 7x7, partner max 10 µM)	0.544	0.582	0.885	0.48	0.287	–	0.233	0.771	0.868	0.188	0.52	0.947	0.905	0.263	0.627	0.545	0.438	0.736	0.0919	0.603
Cn1cnc2c(F)c(Nc3ccc(Br)cc3Cl)c(C(=O)NOCCO)cc21 [Selumetinib] + C[C@@H]1COCCN1C2=NC(=NC(=C2)C3(CC3)[S@](=N)(=O)C)C4=C5C=CNC5=NC=C4 [AZD6738] (first compound max 10 µM, 7x7, partner max 10 µM)	0.466	0.889	0.617	0.393	0.989	–	0.897	0.922	0.825	0.889	0.898	0.222	0.844	0.476	0.868	0.509	0.945	0.671	0.936	0.71
COc1nnc2ccc(N3CCC(c4ccc(OCCN5CCN(C)C(=O)[C@H]5C)cc4)CC3)nn12 [AZD5153] + CCN(CCO)CCCOc1ccc2c(Nc3cc(CC(=O)Nc4cccc(F)c4)[nH]n3)ncnc2c1 [AZD2811] (first compound max 1 µM, 7x7, partner max 1 µM)	0.506	0.913	0.37	0.397	0.874	–	0.667	0.811	0.66	0.716	0.612	0.938	0.667	0.789	1	0.37	0.884	0.632	0.982	0.632
Cn1cnc2c(F)c(Nc3ccc(Br)cc3Cl)c(C(=O)NOCCO)cc21 [Selumetinib] + C=CCn1c(=O)c2cnc(Nc3ccc(N4CCN(C)CC4)cc3)nc2n1-c1cccc(C(C)(C)O)n1 [AZD1775] (first compound max 10 µM, partner max 1 µM)	0.52	0.978	0.402	0.544	1	–	0.898	0.937	0.884	0.905	0.602	0.156	0.849	0.575	0.909	0.604	0.355	0.506	1	0.461
COc1nnc2ccc(N3CCC(c4ccc(OCCN5CCN(C)C(=O)[C@H]5C)cc4)CC3)nn12 [AZD5153] + Cn1cnc2c(F)c(Nc3ccc(Br)cc3Cl)c(C(=O)NOCCO)cc21 [Selumetinib] (first compound max 1 µM, 7x7, partner max 10 µM)	0.615	0.675	0.832	0.401	0.863	–	0.893	0.881	0.786	0.628	0.458	0.942	0.962	0.849	1	0.59	0.762	0.711	0.955	0.721
COc1nnc2ccc(N3CCC(c4ccc(OCCN5CCN(C)C(=O)[C@H]5C)cc4)CC3)nn12 [AZD5153] + C[C@@H]1COCCN1C2=NC(=NC(=C2)C3(CC3)[S@](=N)(=O)C)C4=C5C=CNC5=NC=C4 [AZD6738] (first compound max 1 µM, 7x7, partner max 10 µM)	0.484	0.937	0.481	0.591	1	–	0.979	0.935	0.88	0.913	0.918	0.977	0.844	0.911	1	0.502	0.997	0.79	0.996	0.815
